Reference: paper PMC8802890, “Identification of U937^JAK3-M511I Acute Myeloid Leukemia Cells as a Sensitive Model to JAK3 Inhibitor” (Frontiers in Oncology, 2022)

Tests used:
MOLT-4 = assay: CCK-8 anti-proliferation, MOLT-4; settings: read-out: IC50 Cell line MOLT-4; CCK-8, 72 h; mean ± SD
Jurkat = assay: CCK-8 anti-proliferation, Jurkat; settings: read-out: IC50 Cell line Jurkat; CCK-8, 72 h; mean ± SD
OCI-LY3 = assay: CCK-8 anti-proliferation, OCI-LY3; settings: read-out: IC50 Cell line OCI-LY3; CCK-8, 72 h; mean ± SD
HL-60 = assay: CCK-8 anti-proliferation, HL-60; settings: read-out: IC50 Cell line HL-60; CCK-8, 72 h; mean ± SD
U937 AML cells = assay: CCK-8 anti-proliferation, U937; settings: for IC50: Homo sapiens, U-937, 72 h, read-out: IC50 Cell line U937
MV4-11 = assay: CCK-8 anti-proliferation, MV4-11; settings: read-out: IC50 Cell line MV4-11; CCK-8, 72 h; mean ± SD
Daudi = assay: CCK-8 anti-proliferation, Daudi; settings: read-out: IC50 Cell line Daudi; CCK-8, 72 h; mean ± SD
JAK3 = molecular target: T1, JAK3 (Homo sapiens, UniProt P52333); assay: Z'-Lyte kinase assay, JAK3; type: biochemical
T1 construct: purchased Invitrogen (Waltham, MA, USA)
T1 sequence (P52333 1-1124): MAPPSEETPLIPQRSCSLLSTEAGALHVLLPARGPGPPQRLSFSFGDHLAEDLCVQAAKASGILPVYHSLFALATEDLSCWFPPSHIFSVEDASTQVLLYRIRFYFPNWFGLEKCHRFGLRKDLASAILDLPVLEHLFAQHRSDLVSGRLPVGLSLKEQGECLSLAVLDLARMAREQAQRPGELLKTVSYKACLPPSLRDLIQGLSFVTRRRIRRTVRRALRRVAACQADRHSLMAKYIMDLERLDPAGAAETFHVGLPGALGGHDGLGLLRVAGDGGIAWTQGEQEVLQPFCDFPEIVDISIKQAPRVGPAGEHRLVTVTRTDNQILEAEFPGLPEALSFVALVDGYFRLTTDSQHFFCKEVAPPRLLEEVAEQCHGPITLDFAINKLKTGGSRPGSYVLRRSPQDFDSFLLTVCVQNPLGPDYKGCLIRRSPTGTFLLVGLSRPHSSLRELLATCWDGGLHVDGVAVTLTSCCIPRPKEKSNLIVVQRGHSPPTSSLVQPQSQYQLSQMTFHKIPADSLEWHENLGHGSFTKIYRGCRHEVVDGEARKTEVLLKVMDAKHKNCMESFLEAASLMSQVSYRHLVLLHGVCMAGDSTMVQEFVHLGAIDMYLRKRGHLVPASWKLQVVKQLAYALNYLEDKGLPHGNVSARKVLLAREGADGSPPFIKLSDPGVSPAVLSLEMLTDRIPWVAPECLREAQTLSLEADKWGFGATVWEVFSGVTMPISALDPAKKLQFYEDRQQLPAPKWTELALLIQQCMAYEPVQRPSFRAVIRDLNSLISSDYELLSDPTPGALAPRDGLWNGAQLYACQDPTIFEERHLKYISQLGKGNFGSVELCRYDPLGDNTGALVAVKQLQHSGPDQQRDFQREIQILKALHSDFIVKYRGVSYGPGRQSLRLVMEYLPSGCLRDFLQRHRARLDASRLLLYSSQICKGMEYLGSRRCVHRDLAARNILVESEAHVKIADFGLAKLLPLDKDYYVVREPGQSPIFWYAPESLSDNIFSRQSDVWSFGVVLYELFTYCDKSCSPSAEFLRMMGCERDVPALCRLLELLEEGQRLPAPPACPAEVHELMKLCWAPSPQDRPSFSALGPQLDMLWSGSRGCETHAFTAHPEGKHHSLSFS

[1] = test system: JAK3-STAT3/5 signal pathway in U937 cells; assay: Western blotting of JAK3-STAT3/5 signal pathway, U937; type: cell-based, human
U937 cells [2] = assay: Cell cycle analysis by flow cytometry, U937; type: cell-based, human
Ba/F3-JAK3 (M511I) = assay: CCK-8 anti-proliferation, Ba/F3-JAK3 (M511I); type: cell-based, Murine; settings: Mus musculus; CCK-8, 72 h; mean ± SD
OCI-LY3 cells = assay: Cell cycle analysis by flow cytometry, OCI-LY3; type: cell-based; settings: PF-06651600 treatment
[3] = test system: JAK3-STAT3/5 signal pathway in Ba/F3-JAK3 M511I cell line; assay: Western blotting of JAK3-STAT3/5 signal pathway, Ba/F3-JAK3 M511I; type: cell-based, Murine
Description: Murine Ba/F3 cells were purchased from DSMZ (Deutsche Sammlung von Mikroorganismen und Zellkulturen). Ba/F3 cell lines stably expressing JAK1 and JAK2 were self-established through electroporation of pCDNA3.1-TEL plasmids. JAK3 (M511I) was produced from pCDNA3.1 plasmids using the Amaxa Cell Line Nucleofector Kit V (Lonza, Cologne, Germany). Stable cell lines were selected by G418 (Merck, NJ, USA) and subsequent withdrawal of IL-3 (R&D, MN, USA). All Ba/F3 stable cell lines were confirmed by positive drug tests, DNA sequencing, and Western blotting (WB) analysis. Parental Ba/F3 cells were maintained in RPMI-1640 supplemented with 10% FBS (Biological Industries) and 1% penicillin-streptomycin (Biological Industries) and 10 ng/ml of IL-3, while all Ba/F3 stable cell lines were cultured in the same medium without IL-3.
Cells at a cell density of 8 × 10^5 cells/ml were treated with different concentrations of compounds or DMSO for the indicated time. The cells were then lysed with 1× SDS sample lysis buffer, as recommended by CST. […] The protein signals were detected with Amersham Imager 600 system (GE, Boston, MA, USA) using an ECL Western blotting detection kit (Thermo Fisher Scientific, Waltham, MA, USA).

Ba/F3-TEL-JAK2 = assay: CCK-8 anti-proliferation, Ba/F3-TEL-JAK2; type: cell-based, Murine; settings: Mus musculus; CCK-8, 72 h; mean ± SD
Ba/F3-TEL-JAK1 = assay: CCK-8 anti-proliferation, Ba/F3-TEL-JAK1; type: cell-based, Murine; settings: Mus musculus, CCK-8, 72 h, mean ± SD
Ba/F3 = assay: CCK-8 anti-proliferation, parental Ba/F3; type: cell-based, Murine; settings: Mus musculus, BaF3; parental cells, with IL-3; CCK-8, 72 h; mean ± SD
U937 cells [4] = assay: Apoptosis assay (7-AAD / Annexin V-PE flow cytometry), U937; type: cell-based, human; settings: PF-06651600 treatment
JAK1 = molecular target: T2, JAK1 (Homo sapiens, UniProt P23458); assay: Z'-Lyte kinase assay, JAK1; type: biochemical
T2 construct: purchased Invitrogen (Waltham, MA, USA)
T2 sequence (P23458 whole entry): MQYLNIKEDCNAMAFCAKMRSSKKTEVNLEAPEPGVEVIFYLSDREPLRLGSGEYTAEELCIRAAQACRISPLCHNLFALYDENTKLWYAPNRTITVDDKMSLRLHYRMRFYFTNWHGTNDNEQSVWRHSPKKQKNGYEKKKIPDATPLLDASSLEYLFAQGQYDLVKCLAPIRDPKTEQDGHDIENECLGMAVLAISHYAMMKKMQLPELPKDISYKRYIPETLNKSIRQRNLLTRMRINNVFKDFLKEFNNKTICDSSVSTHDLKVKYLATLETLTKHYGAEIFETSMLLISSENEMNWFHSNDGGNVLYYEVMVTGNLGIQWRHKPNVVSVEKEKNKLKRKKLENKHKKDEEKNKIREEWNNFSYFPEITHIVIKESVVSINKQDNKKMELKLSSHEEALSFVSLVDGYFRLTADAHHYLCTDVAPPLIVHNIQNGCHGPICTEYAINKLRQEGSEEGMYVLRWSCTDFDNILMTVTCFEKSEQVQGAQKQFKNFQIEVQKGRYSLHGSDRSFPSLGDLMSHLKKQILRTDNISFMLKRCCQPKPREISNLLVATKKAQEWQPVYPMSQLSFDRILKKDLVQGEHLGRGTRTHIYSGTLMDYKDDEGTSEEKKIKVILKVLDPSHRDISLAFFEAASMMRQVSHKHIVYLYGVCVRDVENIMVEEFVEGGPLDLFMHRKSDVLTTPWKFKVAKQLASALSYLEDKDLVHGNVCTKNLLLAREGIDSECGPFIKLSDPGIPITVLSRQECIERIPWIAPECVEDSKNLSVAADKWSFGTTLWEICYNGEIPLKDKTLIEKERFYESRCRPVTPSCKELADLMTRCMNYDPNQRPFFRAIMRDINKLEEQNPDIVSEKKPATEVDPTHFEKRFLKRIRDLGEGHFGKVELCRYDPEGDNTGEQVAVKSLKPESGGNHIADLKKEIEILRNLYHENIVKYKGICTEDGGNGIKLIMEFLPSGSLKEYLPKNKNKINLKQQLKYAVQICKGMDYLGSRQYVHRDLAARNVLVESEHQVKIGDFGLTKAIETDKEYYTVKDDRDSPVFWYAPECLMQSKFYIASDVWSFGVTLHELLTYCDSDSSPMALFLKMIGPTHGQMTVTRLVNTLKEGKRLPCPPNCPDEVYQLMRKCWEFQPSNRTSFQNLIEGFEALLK

N#CC[C@H](C1CCCC1)n1cc(-c2ncnc3[nH]ccc23)cn1 [Ruxolitinib]
IC50 (MOLT-4): > 10 µM
IC50 (Jurkat): > 10 µM
IC50 (OCI-LY3): > 10 µM
IC50 (HL-60): > 10 µM
antiproliferative activity against U937 cells (U937 AML cells): sub-micromole antiproliferative activity
IC50 (U937 AML cells): 700 ± 110 nM
IC50 (MV4-11): > 10 µM
IC50 (Daudi): > 10 µM
JAK3 kinase inhibition (JAK3): reasonable inhibition of JAK3

Si-JAK3: Synthetic JAK3 small interfering RNA from RiboBio; si-JAK3: 5′-GCAGACACTTAGCTTGGAA-3′ (chemistry not fully specified)
activation of JAK3-STAT3/5 signal pathway ([1]; JAK3 siRNA for 72 h): suppressed activation of JAK3-STAT3/5 signal pathway
cell cycle arrest (U937 cells [2]; JAK3 siRNA): induced G0/G1 phase arrest

C=CC(=O)N1C[C@H](Nc2ncnc3[nH]ccc23)CC[C@@H]1C [PF-06651600, ritlecitinib]
IC50 (MOLT-4): > 10 µM
IC50 (Ba/F3-JAK3 (M511I)): 30 ± 10 nM
IC50 (Jurkat): > 10 µM
cell fate or phenotypes (OCI-LY3 cells): did not obviously affect the cell fate or the phenotypes
downstream signaling factors of JAK3 [3]: inhibited the downstream signaling factors of JAK3
phosphorylation of JAK3 [3]: enhanced the phosphorylation of JAK3
IC50 (Ba/F3-TEL-JAK2): > 10000 nM
IC50 (Ba/F3-TEL-JAK1): > 10000 nM
IC50 (Ba/F3): > 10000 nM
apoptosis (U937 cells [4]): inducing apoptosis only barely
activation of JAK3 and the downstream signals [1]: potently suppressed the activation of JAK3 and the downstream signals in a dose-dependent manner
IC50 (OCI-LY3): > 10 µM
potency against JAK1 less than against JAK3 (JAK1): approximately 3,000 fold
cell cycle arrest (U937 cells [2]; PF-06651600 treatment): dose-dependent G0/G1 phase cell cycle arrest
IC50 (HL-60): > 10 µM
IC50 (U937 AML cells): 27 ± 4 nM
IC50 (MV4-11): > 10 µM
IC50 (Daudi): > 10 µM

CCS(=O)(=O)N1CC(CC#N)(n2cc(-c3ncnc4[nH]ccc34)cn2)C1 [Baricitinib]
antiproliferative activity against U937 cells (U937 AML cells): micromolar IC50 values
JAK3 kinase inhibition (JAK3): weakly suppressed the activity of JAK3

Cc1cnc(Nc2ccc(OCCN3CCCC3)cc2)nc1Nc1cccc(S(=O)(=O)NC(C)(C)C)c1 [Fedratinib]
IC50 (MOLT-4): 2.72 ± 0.54 µM
IC50 (Ba/F3-JAK3 (M511I)): 2840 ± 390 nM
IC50 (Jurkat): 1.42 ± 0.32 µM
IC50 (Ba/F3-TEL-JAK2): 1830 ± 60 nM
IC50 (Ba/F3-TEL-JAK1): 1960 ± 240 nM
IC50 (Ba/F3): 3470 ± 330 nM
IC50 (OCI-LY3): 3.18 ± 0.13 µM
IC50 (HL-60): 2.44 ± 0.16 µM
antiproliferative activity against U937 cells (U937 AML cells): micromolar IC50 values
IC50 (U937 AML cells): 2530 ± 170 nM
IC50 (MV4-11): > 10 µM
IC50 (Daudi): 3.92 ± 0.21 µM
JAK3 kinase inhibition (JAK3): weakly suppressed the activity of JAK3

NC(=O)c1cnc2[nH]ccc2c1N[C@@H]1[C@@H]2CC3C[C@H]1C[C@@](O)(C3)C2 [Peficitinib]
IC50 (MOLT-4): 2.22 ± 0.08 µM
IC50 (Ba/F3-JAK3 (M511I)): 100 ± 50 nM
IC50 (Jurkat): 2.32 ± 0.82 µM
IC50 (Ba/F3-TEL-JAK2): 1290 ± 90 nM
IC50 (Ba/F3-TEL-JAK1): 600 ± 80 nM
IC50 (Ba/F3): 1560 ± 90 nM
IC50 (OCI-LY3): 3.42 ± 0.01 µM
IC50 (HL-60): 4.93 ± 1.22 µM
IC50 (U937 AML cells): 90 ± 20 nM
IC50 (MV4-11): 9.19 ± 0.98 µM
IC50 (Daudi): 5.82 ± 0.15 µM

O=C(Nc1nc2cccc(-c3ccc(CN4CCS(=O)(=O)CC4)cc3)n2n1)C1CC1 [Filgotinib]
IC50 (MOLT-4): > 10 µM
IC50 (Ba/F3-JAK3 (M511I)): 7190 ± 2500 nM
IC50 (Jurkat): > 10 µM
IC50 (Ba/F3-TEL-JAK2): > 10000 nM
IC50 (Ba/F3-TEL-JAK1): > 10000 nM
IC50 (Ba/F3): > 10000 nM
IC50 (OCI-LY3): > 10 µM
IC50 (HL-60): > 10 µM
antiproliferative activity against U937 cells (U937 AML cells): almost totally inactive
IC50 (U937 AML cells): > 10000 nM
IC50 (MV4-11): > 10 µM
IC50 (Daudi): > 10 µM
JAK3 kinase inhibition (JAK3): did not obviously suppress JAK3 kinase activity

CC[C@@H]1CN(C(=O)NCC(F)(F)F)C[C@@H]1c1cnc2cnc3[nH]ccc3n12 [Upadacitinib]
IC50 (MOLT-4): > 10 µM
IC50 (Ba/F3-JAK3 (M511I)): 98 ± 47 nM
IC50 (Jurkat): > 10 µM
IC50 (Ba/F3-TEL-JAK2): 180 ± 10 nM
IC50 (Ba/F3-TEL-JAK1): 75 ± 8 nM
IC50 (Ba/F3): 900 ± 120 nM
IC50 (OCI-LY3): > 10 µM
IC50 (HL-60): > 10 µM
IC50 (U937 AML cells): 250 ± 30 nM
IC50 (MV4-11): > 10 µM
IC50 (Daudi): > 10 µM
